According to PubChem BioAssay (NCI):
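Cultured in 96-well plates, cells were exposed to test compound for 48 hours across five concentrations. The concentration for 50% growth inhibition is given as GI50. TGI marks complete inhibition of growth.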

Legend:
Assay in all cases: growth of human tumour cells (NCI), 48 h
UO-31 renal = test system: UO-31 renal
A498 renal = test system: A498 renal
K-562 leukemia = test system: K-562 leukemia
UACC-62 melanoma = test system: UACC-62 melanoma
SK-OV-3 ovarian = test system: SK-OV-3 ovarian
HT29 colon = test system: HT29 colon
M14 melanoma = test system: M14 melanoma
SW-620 colon = test system: SW-620 colon
MCF7 breast = test system: MCF7 breast

| Compound | TGI (UO-31 renal) [µM] | TGI (A498 renal) [µM] | TGI (K-562 leukemia) [µM] | TGI (UACC-62 melanoma) [µM] | TGI (SK-OV-3 ovarian) [µM] | TGI (HT29 colon) [µM] | TGI (M14 melanoma) [µM] | TGI (SW-620 colon) [µM] | GI50 (UO-31 renal) [µM] | GI50 (A498 renal) [µM] | GI50 (K-562 leukemia) [µM] | GI50 (SK-OV-3 ovarian) [µM] | GI50 (HT29 colon) [µM] | GI50 (M14 melanoma) [µM] | GI50 (MCF7 breast) [µM] | TGI (MCF7 breast) [µM] | GI50 (SW-620 colon) [µM] | GI50 (UACC-62 melanoma) [µM] |
| --- | --- | --- | --- | --- | --- | --- | --- | --- | --- | --- | --- | --- | --- | --- | --- | --- | --- | --- |
| Nc1cc(=O)n(-c2ccccc2)c(=S)n1-c1ccccc1 | > 100 | > 100 | > 100 | > 100 | > 100 | > 100 | > 100 | > 100 |  |  |  |  |  |  |  |  |  |  |
| c1ccc2c(c1)N=C(c1cccc3ccccc13)CC(c1ccc3c(c1)OCO3)S2 (stereo not drawn) | > 100 | > 100 | > 100 | > 100 | > 100 | > 100 | > 100 | > 100 |  |  |  |  |  |  |  |  |  |  |
| Cc1cc(C)nc(NS(=O)(=O)c2ccc(Nc3c4ccc(Cl)cc4nc4c(C(=O)NCCN(C)C)cccc34)cc2)n1 | > 100 | > 100 | > 100 | > 100 | > 100 | > 100 | > 100 | > 100 |  |  |  |  |  |  |  |  |  |  |
| COC(=O)C(Cc1nc2ccccc2nc1C)/C(=N\NC(N)=O)C(=O)Nc1cccc([N+](=O)[O-])c1 (stereo not drawn) | > 100 | > 100 | > 100 | > 100 | > 100 | > 100 | > 100 | > 100 |  |  |  |  |  |  |  |  |  |  |
| CCNC(=O)O/N=C1\CCC2[C@@H]3CC=C4C[C@@H](OC5CCCCO5)CC[C@]4(C)C3CC[C@]12C (stereo partly drawn) | 2.85 | > 100 |  | 3.94 | 17.3 | 13.3 |  | 6.04 |  |  |  |  |  |  |  |  |  |  |
| COc1ccccc1NC(=O)c1nc2ccc([N+](=O)[O-])cc2nc1C | > 100 | > 100 | > 100 | > 100 | > 100 | > 100 | > 100 | > 100 |  |  |  |  |  |  |  |  |  |  |
| Cc1ccccc1-n1c2nc(=O)n(C)c(=O)c-2nc2ccccc21 | 66.1 | 79.1 | 43.6 | 9.78 | > 100 | 14.3 | 25.4 | 28.1 |  |  |  |  |  |  |  |  |  |  |
| O=C(/C(=C\c1ccc(Cl)cc1)c1ccccc1)c1ccccc1 | > 100 | > 100 | > 100 | > 100 | > 100 | > 100 | > 100 | > 100 |  |  |  |  |  |  |  |  |  |  |
| CN1CCN(C)C12C=CC=CC21CC1 | > 100 | > 100 | > 100 | > 100 | > 100 | > 100 | > 100 | > 100 |  |  |  |  |  |  |  |  |  |  |
| O=C(COC(=O)c1cccc2c(=O)c3ccccc3[nH]c12)Nc1ccc(C(=O)O)cc1 | > 100 | > 100 | > 100 | > 100 | > 100 | > 100 | > 100 | > 100 |  |  |  |  |  |  |  |  |  |  |
| CC(=O)c1cc(C(=O)c2ccc3c(c2)Sc2ccccc2N3)c2cc(C)ccn12 | > 100 | > 100 | > 100 |  | > 100 | > 100 | > 100 | > 100 | 0.0515 | 0.0431 | 0.041 | 0.189 | 0.0627 | 0.0593 | 0.0345 | > 100 | 0.0559 |  |
| Ic1cc2c(cc1C1SCCCS1)OCO2 | > 100 | > 100 | > 100 | > 100 | > 100 | > 100 | > 100 | > 100 |  |  |  |  |  |  |  |  |  |  |
| NCCNCc1c2ccccc2c(CNCCN)c2ccccc12 | > 100 | 75.3 | 36.7 | 53.5 |  | > 100 | 35.2 | > 100 |  |  |  |  |  |  |  |  |  |  |
| CC(=O)NC1C(OCc2ccccc2)OC(COC(=O)CCCCCCCCCCNc2ccc([N+](=O)[O-])c3[nH]c4ccccc4c(=O)c23)C(O)C1OC(C)C(=O)NC(C)C(=O)NC(CCC(N)=O)C(=O)OCc1ccccc1 (stereo not drawn) | > 100 | > 100 | > 100 | > 100 | > 100 | > 100 | > 100 | > 100 |  |  |  |  |  |  |  |  |  |  |
| CC1=CC(N2C(=O)C(C)=CC2O)NC1=O (stereo not drawn) | > 100 |  |  |  |  | > 100 | > 100 | > 100 |  |  |  |  |  |  |  |  |  |  |
| COc1ccc2nc3cc(Cl)ccc3c(Sc3ccc([N+](=O)[O-])cc3)c2c1 | > 100 | > 100 | > 100 | > 100 | > 100 | > 100 | > 100 | > 100 | > 100 | > 100 | > 100 | > 100 |  | > 100 |  |  | > 100 | > 100 |

| Compound | TGI (UO-31 renal) [µM] | TGI (A498 renal) [µM] | TGI (K-562 leukemia) [µM] | TGI (UACC-62 melanoma) [µM] | TGI (SK-OV-3 ovarian) [µM] | TGI (HT29 colon) [µM] | TGI (M14 melanoma) [µM] | TGI (SW-620 colon) [µM] | GI50 (UO-31 renal) [µM] | GI50 (A498 renal) [µM] | GI50 (K-562 leukemia) [µM] | GI50 (SK-OV-3 ovarian) [µM] | GI50 (HT29 colon) [µM] | GI50 (M14 melanoma) [µM] | GI50 (MCF7 breast) [µM] | TGI (MCF7 breast) [µM] | GI50 (SW-620 colon) [µM] | GI50 (UACC-62 melanoma) [µM] |
| --- | --- | --- | --- | --- | --- | --- | --- | --- | --- | --- | --- | --- | --- | --- | --- | --- | --- | --- |
| CC1(c2ccccc2)CC(c2cccc([N+](=O)[O-])c2)=NO1 (stereo not drawn) | > 100 | > 100 |  |  | > 100 | > 100 | > 100 | > 100 |  |  |  |  |  |  |  |  |  |  |
| Cc1ccc(S(=O)OCC23CC4CC(CC(C4)C2)C3)cc1 (stereo not drawn) | > 100 | > 100 | > 100 | > 100 | > 100 | > 100 | > 100 | > 100 |  |  |  |  |  |  |  |  |  |  |
| O=C1CCSC2=C1SCc1sccc12 | > 100 |  | > 100 | > 100 | > 100 |  | > 100 | > 100 |  |  |  |  |  |  |  |  |  |  |
| OCCN1CCN2C=C(C3CCCC4N(CCO)CCN34)CCC21 (stereo not drawn) | > 100 | > 100 | > 61.5 | > 93.9 | > 100 | > 100 | > 100 | > 67.9 |  |  |  |  |  |  |  |  |  |  |
| COc1ccc(C(=O)C(c2ccc(OCc3ccccc3)cc2)c2ccc(OCc3ccccc3)cc2)cc1 | > 100 |  | > 100 | > 100 | > 100 | > 100 | > 100 | > 100 |  |  |  |  |  |  |  |  |  |  |
| Cc1ccc(NC(=O)c2sc3nc4c(cc3c2N)C(=O)CCC4)cc1C | > 100 | 0.658 | 35 | > 100 | > 100 | 11.2 | > 100 | > 100 | 1.81 | 0.198 | 0.468 | 0.533 | 0.399 | 0.602 | 0.352 | > 100 | 0.417 | 0.496 |
| CCCCCCCCCCCCCCCCC(=O)O.CCCCCCCCCCCCCCCCCC(=O)O.CCCCCCCCCCCCCCCCCC(=O)O.CCCCCCCCCCCCCCCCCC(=O)O.CCCCCCCCCCCCCCCCCC(=O)O.CO[CH-]OC12COC1CC(O)C1(C)C(O)C(OC(C)O)C3=C(C)C(OC(=O)C(O)C([NH-])c4ccccc4)CC(O)(C(OC(=O)c4ccccc4)C21)C3(C)C.[Cu+].[Zn].[Zn].[Zn].[Zn].[Zn] (stereo not drawn) | > 14.5 | 0.0187 | > 25 | 5.47 | 5.3 | > 25 |  | > 16.2 | 0.487 | < 0.0025 | 0.005 | 0.0203 | < 0.0025 |  | 0.00262 | 3.83 | 0.00662 | 0.0118 |
| NNC(=O)N/N=C1\C(=O)N(c2ccc(Cl)c(Cl)c2)C(=O)C(=O)C1c1nc2ccccc2s1 (stereo not drawn) | > 100 | > 100 |  | > 100 | > 100 | > 100 | > 100 | > 100 |  |  |  |  |  |  |  |  |  |  |
| Cc1ccc(NC(=O)/C(Cl)=C(/Cl)C(=O)O)cc1 | 31.8 | > 100 | 23.5 | 29.7 | 35.8 | 35 | 28.7 | 29.9 |  |  |  |  |  |  |  |  |  |  |
| COc1cc(-c2cc(-c3cc(OC)c(OC)c(OC)c3)nc3nc(N)[nH]c(=O)c23)ccc1Oc1ccnc2cc(Cl)ccc12 | > 100 | 86.4 | > 100 | 25.2 | 9.36 | 25.4 |  | > 100 | 3.45 | 16.3 | 0.379 | 2.95 | 10.5 |  | 0.762 | > 100 | 1.35 | 3.55 |
| CC(=O)[CH-]C(=O)c1ccccc1.CC(=O)[CH-]C(=O)c1ccccc1.C[C@]12CCC(=O)C=C1CC[C@@H]1C2CC[C@@]2(C)C1CC[C@@H]2[O-].C[C@]12CCC(=O)C=C1CC[C@@H]1C2CC[C@@]2(C)C1CC[C@@H]2[O-].Cl.[Ti+4] (stereo partly drawn) | 52.5 | 30.8 | > 100 | 33.8 | 56.9 | 37.2 | 41.8 | 43.7 | 16.5 | 16.5 | 23.2 | 27 | 17.5 | 15.9 |  |  | 17.5 | 6.67 |
| CC(C)NC(=O)CCN(C(=O)O)S(=O)(=O)c1ccc(NC(=O)c2ccccc2)cc1 | > 100 | > 100 | > 64.5 | > 82.7 | > 100 | > 100 | > 100 | > 52.4 |  |  |  |  |  |  |  |  |  |  |
| N/N=c1\c2ccccc2c2cc3c(cc12)/c(=N/N)c1ccccc13 | > 100 |  | > 100 | > 100 | > 100 | > 100 | > 100 | > 100 |  |  |  |  |  |  |  |  |  |  |
| CC#CC1C2CCCC1(CSc1ccccc1)NC(=O)O2 (stereo not drawn) | > 100 | > 100 | > 100 | > 100 | > 100 | > 100 | > 100 | > 100 |  |  |  |  |  |  |  |  |  |  |
| Clc1ccc(-c2c(C3=NCCCN3)nnn2-c2ccccc2)cc1 | > 100 | > 100 | > 100 | > 100 | > 100 | > 100 | > 100 | 46.7 |  |  |  |  |  |  |  |  |  |  |
